Results: patent publication EP4273147A1, “SUBSTITUTED SPIROLACTAMS, SALTS THEREOF AND THEIR USE AS HERBICIDALLY ACTIVE SUBSTANCES” (Bayer Aktiengesellschaft, priority 2022, dated 2023)

Tests used:
VERPE [1] = experiment: Herbicidal pre-emergence action, section C (Table C11); type: in vivo, Veronica persica; details: application rate 320 g/ha; visual grading after ca. 3 weeks
Excerpt: (§5) Seeds of mono- and dicotyledonous weed plants and crop plants were sown, in plastic or organic planting pots, in sandy loam and covered with soil. The compounds according to the invention, formulated in the form of wettable powders (WP) or as emulsifiable concentrates (EC), were applied to the surface of the covering soil as aqueous suspension or emulsion, with the addition of 0.5% of an additive, at an application rate of 600 1 of water/ha (converted). Following treatment, the pots were placed in a greenhouse and kept under optimum growth conditions for the test plants.

DIGSA [2] = experiment: Herbicidal pre-emergence action, section C (Table C5); type: in vivo, Digitaria sanguinalis; details: visual grading after ca. 3 weeks
Excerpt: as §5

BRSNW [3] = experiment: Post-emergence effects on crop plants (Table F5); type: in vivo, Brassica napus; details: application rate 80 g/ha, crop plant BRSNW
Excerpt: (§1) 2 to 3 weeks after sowing, the test plants were sprayed in the single-leaf stage.

MATIN [4] = experiment: Herbicidal pre-emergence action (Table A4); type: in vivo, Matricaria inodora; details: visual grading after ca. 3 weeks
Procedure, shortened: (§2)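 Double sowing per pot (1 monocot + 1 dicot weed species), sandy loam substrate, seeds covered with soil.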

ALOMY [5] = experiment: Herbicidal pre-emergence action, section C (Table C2); type: in vivo, Alopecurus myosuroides; details: application rate 320 g/ha; visual grading after ca. 3 weeks
ZEAMX [6] = experiment: Pre-emergence effects on crop plants (Table D1); type: in vivo, Zea mays; details: crop plant, visual grading after ca. 3 weeks
AMARE = experiment: Herbicidal pre-emergence action (Table A8); type: in vivo, Amaranthus retroflexus; details: application rate 1280 g/ha; visual grading after ca. 3 weeks vs untreated controls (100% = plants have died off, 0% = as control plants)
Excerpt: Seeds of mono- and dicotyledonous weed plants were sown in plastic pots (double sowings with one species of mono- and one species of dicotyledonous weed plants per pot), in sandy loam, and covered with soil.

LOLRI [7] = experiment: Herbicidal pre-emergence action (Table A3); type: in vivo, Lolium rigidum; details: visual grading after ca. 3 weeks
Procedure, shortened: as §2

GLXMA [8] = experiment: Post-emergence effects on crop plants (Table F4); type: in vivo, Glycine max; details: crop plant GLXMA
Excerpt: as §1

SETVI [9] = experiment: Herbicidal post-emergence action (Table B8); type: in vivo, Setaria viridis; details: application rate 1280 g/ha
Procedure, shortened: (§3)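 Visual rating of activity versus untreated plants about 3 weeks after treatment: 0% means no difference from controls, 100% means complete kill. Test weeds were raised from seed in sandy loam under controlled greenhouse conditions and sprayed at the one-leaf stage.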

VERPE [10] = experiment: Herbicidal pre-emergence action (Table A11); type: in vivo, Veronica persica; details: application rate 1280 g/ha; visual grading after ca. 3 weeks
Procedure, shortened: as §2

STEME = experiment: Herbicidal pre-emergence action (Table A6); type: in vivo, Stellaria media; details: application rate 320 g/ha; visual grading after ca. 3 weeks
Procedure, shortened: as §2

LOLRI [11] = experiment: Herbicidal pre-emergence action, section C (Table C7); type: in vivo, Lolium rigidum; details: application rate 320 g/ha; visual grading after ca. 3 weeks
MATIN [12] = experiment: Herbicidal pre-emergence action, section C (Table C8); type: in vivo, Matricaria inodora; details: application rate 320 g/ha; visual grading after ca. 3 weeks
ORYZA [13] = experiment: Post-emergence effects on crop plants (Table F3); type: in vivo, Oryza sativa; details: application rate 320 g/ha, crop plant ORYZA
Excerpt: as §1

TRZAS [14] = experiment: Post-emergence effects on crop plants (Table F2); type: in vivo, Triticum aestivum; details: application rate 320 g/ha, crop plant TRZAS
Excerpt: as §1

TRZAS [15] = experiment: Pre-emergence effects on crop plants (Table D2); type: in vivo, Triticum aestivum; details: crop plant; application rate 80 g/ha; visual grading after ca. 3 weeks
DIGSA [16] = experiment: Herbicidal pre-emergence action (Table A12); type: in vivo, Digitaria sanguinalis; details: application rate 320 g/ha; visual grading after ca. 3 weeks
Procedure, shortened: as §2

POAAN [17] = experiment: Herbicidal pre-emergence action (Table A7); type: in vivo, Poa annua; details: application rate 320 g/ha; visual grading after ca. 3 weeks
Procedure, shortened: as §2

VIOTR [18] = experiment: Herbicidal pre-emergence action, section C (Table C12); type: in vivo, Viola tricolor; details: application rate 80 g/ha; visual grading after ca. 3 weeks
ORYZA [19] = experiment: Pre-emergence effects on crop plants (Table D3); details: crop plant; application rate 80 g/ha; visual grading after ca. 3 weeks
VIOTR [20] = experiment: Herbicidal post-emergence action, section E (Table E10); type: in vivo, Viola tricolor; details: application rate 320 g/ha; assessed visually after ca. 3 weeks
Excerpt: as §1

ZEAMX [21] = experiment: Post-emergence effects on crop plants (Table F1); type: in vivo, Zea mays; details: crop plant ZEAMX
Excerpt: as §1

ABUTH [22] = experiment: Herbicidal pre-emergence action (Table A1); type: in vivo, Abutilon theophrasti; details: application rate 1280 g/ha; visual grading after ca. 3 weeks vs untreated controls (100% = plants have died off, 0% = as control plants)
Procedure, shortened: as §2

ECHCG [23] = experiment: Herbicidal pre-emergence action, section C (Table C6); type: in vivo, Echinochloa crus-galli; details: application rate 80 g/ha; visual grading after ca. 3 weeks
POLCO = experiment: Herbicidal pre-emergence action, section C (Table C9); type: in vivo, Polygonum convolvulus; details: application rate 80 g/ha; visual grading after ca. 3 weeks
POAAN [24] = experiment: Herbicidal post-emergence action (Table B7); type: in vivo, Poa annua; details: application rate 1280 g/ha
Procedure, shortened: as §3

ALOMY [25] = experiment: Herbicidal pre-emergence action (Table A9); type: in vivo, Alopecurus myosuroides; details: application rate 1280 g/ha; visual grading after ca. 3 weeks
Procedure, shortened: as §2

ABUTH [26] = experiment: Herbicidal pre-emergence action, section C (Table C1); type: in vivo, Abutilon theophrasti; details: application rate 320 g/ha; visual grading after ca. 3 weeks
ECHCG [27] = experiment: Herbicidal pre-emergence action (Table A2); type: in vivo, Echinochloa crus-galli; details: application rate 320 g/ha; visual grading after ca. 3 weeks
Procedure, shortened: as §2

SETVI [28] = experiment: Herbicidal pre-emergence action, section C (Table C10); type: in vivo, Setaria viridis; details: visual grading after ca. 3 weeks
Excerpt: as §5

ABUTH [29] = experiment: Herbicidal post-emergence action (Table B1); type: in vivo, Abutilon theophrasti; details: application rate 1280 g/ha; treated at one-leaf stage; rated visually after about 3 weeks vs untreated controls (100% = plants have died, 0% = like control plants)
Procedure: (§4) Seeds of mono- and dicotyledonous weed plants were placed in plastic pots in sandy loam soil (doubly sown with in each case one species of mono- or dicotyledonous weed plants per pot), covered with soil and cultivated in a greenhouse under controlled growth conditions. 2 to 3 weeks after sowing, the test plants were treated at the one-leaf stage. […] After the test plants had been kept in the greenhouse under optimum growth conditions for about 3 weeks, the activity of the preparations was rated visually in comparison to untreated controls. For example, 100% activity = the plants have died, 0% activity = like control plants.

SETVI [30] = experiment: Herbicidal pre-emergence action (Table A5); type: in vivo, Setaria viridis; details: visual grading after ca. 3 weeks
Procedure, shortened: as §2

ALOMY [31] = experiment: Herbicidal post-emergence action (Table B2); type: in vivo, Alopecurus myosuroides; details: application rate 1280 g/ha; rated visually after about 3 weeks
Procedure: as §4

VERPE [32] = experiment: Herbicidal post-emergence action (Table B10); type: in vivo, Veronica persica; details: application rate 1280 g/ha
Procedure, shortened: as §3

BRSNW [33] = experiment: Pre-emergence effects on crop plants (Table D5); type: in vivo, Brassica napus; details: crop plant; application rate 80 g/ha; visual grading after ca. 3 weeks
GLXMA [34] = experiment: Pre-emergence effects on crop plants (Table D4); type: in vivo, Glycine max; details: crop plant; application rate 320 g/ha; visual grading after ca. 3 weeks
VERPE [35] = experiment: Herbicidal post-emergence action, section E (Table E9); type: in vivo, Veronica persica; details: application rate 320 g/ha; assessed visually after ca. 3 weeks
Excerpt: as §1

LOLRI [36] = experiment: Herbicidal post-emergence action (Table B5); type: in vivo, Lolium rigidum; details: application rate 1280 g/ha; rated visually after about 3 weeks
Procedure: as §4

MATIN [37] = experiment: Herbicidal post-emergence action (Table B6); type: in vivo, Matricaria inodora; details: application rate 1280 g/ha; rated visually after about 3 weeks
Procedure: as §4

ECHCG [38] = experiment: Herbicidal post-emergence action (Table B3); type: in vivo, Echinochloa crus-galli; details: application rate 1280 g/ha; rated visually after about 3 weeks
Procedure, shortened: as §3

SMILES: O=C1N(Cc2ccccc2F)CCCC12CCN(Cc1ccccc1F)C2=O (racemic) [I-026]
- pre-emergence activity against VERPE (VERPE [1]): 80%
- pre-emergence activity against DIGSA (DIGSA [2]; application rate 320 g/ha): 100%
- post-emergence activity against BRSNW (BRSNW [3]): 0%
- pre-emergence activity against MATIN (MATIN [4]; application rate 320 g/ha): 90%
- pre-emergence activity against ALOMY (ALOMY [5]): 100%
- pre-emergence activity against ZEAMX (ZEAMX [6]; application rate 80 g/ha): 0%
- pre-emergence activity against AMARE (AMARE): 90%
- pre-emergence activity against LOLRI (LOLRI [7]; application rate 320 g/ha): 100%
- post-emergence activity against GLXMA (GLXMA [8]; application rate 80 g/ha): 0%
- post-emergence activity against SETVI (SETVI [9]): 90%
- pre-emergence activity against VERPE (VERPE [10]): 90%
- pre-emergence activity against STEME (STEME): 90%
- pre-emergence activity against LOLRI (LOLRI [11]): 100%
- pre-emergence activity against MATIN (MATIN [12]): 90%
- post-emergence activity against ORYZA (ORYZA [13]): 0%
- post-emergence activity against TRZAS (TRZAS [14]): 0%
- pre-emergence activity against TRZAS (TRZAS [15]): 0%
- pre-emergence activity against DIGSA (DIGSA [16]): 100%
- pre-emergence activity against POAAN (POAAN [17]): 100%
- pre-emergence activity against VIOTR (VIOTR [18]): 90%
- pre-emergence activity against ORYZA (ORYZA [19]): 0%
- post-emergence activity against VIOTR (VIOTR [20]): 80%
- post-emergence activity against ZEAMX (ZEAMX [21]; application rate 80 g/ha): 0%
- pre-emergence activity against ABUTH (ABUTH [22]): 90%
- pre-emergence activity against ECHCG (ECHCG [23]): 100%
- pre-emergence activity against POLCO (POLCO): 80%
- post-emergence activity against POAAN (POAAN [24]): 90%
- pre-emergence activity against ALOMY (ALOMY [25]): 100%
- pre-emergence activity against ABUTH (ABUTH [26]): 80%
- pre-emergence activity against ECHCG (ECHCG [27]): 100%
- pre-emergence activity against SETVI (SETVI [28]; application rate 80 g/ha): 100%
- post-emergence activity against ABUTH (ABUTH [29]): 90%
- pre-emergence activity against SETVI (SETVI [30]; application rate 320 g/ha): 100%

SMILES: O=C1N(Cc2ccccc2F)CCCC12CCCN(Cc1ccccc1Br)C2=O (racemic) [I-042]
- pre-emergence activity against LOLRI (LOLRI [7]; application rate 1280 g/ha): 100%
- pre-emergence activity against POAAN (POAAN [17]): 100%
- post-emergence activity against ALOMY (ALOMY [31]): 90%
- post-emergence activity against POAAN (POAAN [24]): 90%
- pre-emergence activity against ECHCG (ECHCG [27]): 100%
- post-emergence activity against VERPE (VERPE [32]): 90%
- pre-emergence activity against SETVI (SETVI [30]; application rate 320 g/ha): 90%

SMILES: O=C1N(Cc2ccccc2Cl)CCC12CCCN(Cc1c(F)cccc1F)C2=O (racemic) [I-045]
- pre-emergence activity against VERPE (VERPE [1]): 80%
- pre-emergence activity against DIGSA (DIGSA [2]; application rate 80 g/ha): 80%
- pre-emergence activity against MATIN (MATIN [4]; application rate 1280 g/ha): 90%
- pre-emergence activity against ALOMY (ALOMY [5]): 100%
- pre-emergence activity against ZEAMX (ZEAMX [6]; application rate 320 g/ha): 0%
- pre-emergence activity against BRSNW (BRSNW [33]): 0%
- pre-emergence activity against LOLRI (LOLRI [7]; application rate 1280 g/ha): 100%
- post-emergence activity against GLXMA (GLXMA [8]; application rate 320 g/ha): 0%
- pre-emergence activity against STEME (STEME): 90%
- pre-emergence activity against LOLRI (LOLRI [11]): 90%
- post-emergence activity against ORYZA (ORYZA [13]): 0%
- pre-emergence activity against GLXMA (GLXMA [34]): 0%
- post-emergence activity against VERPE (VERPE [35]): 80%
- post-emergence activity against TRZAS (TRZAS [14]): 0%
- pre-emergence activity against DIGSA (DIGSA [16]): 90%
- pre-emergence activity against POAAN (POAAN [17]): 100%
- pre-emergence activity against VIOTR (VIOTR [18]): 90%
- post-emergence activity against LOLRI (LOLRI [36]): 90%
- pre-emergence activity against ORYZA (ORYZA [19]): 0%
- post-emergence activity against VIOTR (VIOTR [20]): 80%
- post-emergence activity against ZEAMX (ZEAMX [21]; application rate 320 g/ha): 0%
- pre-emergence activity against ECHCG (ECHCG [23]): 90%
- post-emergence activity against POAAN (POAAN [24]): 90%
- pre-emergence activity against ALOMY (ALOMY [25]): 90%
- pre-emergence activity against SETVI (SETVI [28]; application rate 320 g/ha): 100%
- post-emergence activity against MATIN (MATIN [37]): 90%
- pre-emergence activity against SETVI (SETVI [30]; application rate 1280 g/ha): 100%
- post-emergence activity against ECHCG (ECHCG [38]): 90%
